pIC50: −log10 of the molar value.
target: T1, vanilloid receptor (Rattus norvegicus, UniProt O35433); assay: 45Ca influx test in cultured neonatal rat DRG neurons, inhibition of capsaicin response; type: cell-based; conditions: neonatal rat DRG neurons, capsaicin 0.5 μM, 45Ca influx; read-out: Antagonist Calcium Uptake Test (IC50)
T1 construct: DRG nerve cells from the primary culture of 2 days were equilibrated; endogenous in cells; host or cells: primary culture of dorsal root ganglion neurons from neonatal SD rats
T1 sequence (O35433 whole entry): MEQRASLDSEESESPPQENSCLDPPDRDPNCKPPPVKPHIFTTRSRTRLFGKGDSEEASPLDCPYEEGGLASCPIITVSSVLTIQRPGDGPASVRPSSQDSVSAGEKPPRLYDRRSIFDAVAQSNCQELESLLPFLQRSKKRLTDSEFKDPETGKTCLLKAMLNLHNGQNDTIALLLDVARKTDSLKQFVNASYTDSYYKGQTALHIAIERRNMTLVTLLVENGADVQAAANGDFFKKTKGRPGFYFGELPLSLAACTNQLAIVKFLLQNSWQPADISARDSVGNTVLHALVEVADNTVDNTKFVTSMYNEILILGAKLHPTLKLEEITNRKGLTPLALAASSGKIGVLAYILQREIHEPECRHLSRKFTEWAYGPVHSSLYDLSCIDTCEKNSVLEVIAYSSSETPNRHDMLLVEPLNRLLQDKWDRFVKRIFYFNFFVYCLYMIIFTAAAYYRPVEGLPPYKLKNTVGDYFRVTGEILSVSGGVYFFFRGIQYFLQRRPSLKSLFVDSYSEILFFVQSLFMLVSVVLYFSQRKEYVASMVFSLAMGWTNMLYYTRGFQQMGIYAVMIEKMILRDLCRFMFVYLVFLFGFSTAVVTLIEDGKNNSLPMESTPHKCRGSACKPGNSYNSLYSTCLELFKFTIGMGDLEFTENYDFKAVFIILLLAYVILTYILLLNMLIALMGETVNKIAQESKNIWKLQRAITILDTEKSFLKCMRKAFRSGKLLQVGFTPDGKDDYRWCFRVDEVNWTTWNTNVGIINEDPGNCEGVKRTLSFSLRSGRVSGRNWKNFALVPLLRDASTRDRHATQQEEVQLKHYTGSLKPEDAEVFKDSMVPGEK
Protocol: 1) Separation of Spinal Dorsal Root Ganglia (DRG) in Newborn Rats and Primary Culture Thereof
Neonatal (2-3 day old or younger than 2-3 day old) SD rats were put in ice for 5 minutes to anesthetize and disinfected with 70% ethanol. […] The DRG were incubated sequentially at 37° C. for 30 mins in 200 U/ml collagenase and 2.5 mg/ml trypsin, separately. The ganglia were washed twice with DME/F12 medium supplemented with 10% horse serum, triturated through a fire-polished Pasteur pipette, filtered through Nitex 80 membrane to obtain single cell suspension and the suspension was washed once more. This was subjected to centrifugation, then resuspended in cell culture medium at certain level of cell density. As the cell culture medium, DME/F12 medium supplemented with 10% horse serum was diluted with identical medium conditioned by C6 glioma cells 2 days on a confluent monolayer (1:1), and NGF (Nerve Growth Factor) was added to adjust 200 ng/ml as final concentration. After the cells were grown 2 days in medium where cytosine arabinoside (Ara-C, 100 μM) was added to kill dividing nonneuronal cells, medium was changed to one without Ara-C. The resuspended cells were plated at a density of 1500-2000 neurons/well onto Terasaki plates previously coated with 10 μg/ml poly-D-ornithine.
2) ^45Ca Influx Experiments
DRG nerve cells from the primary culture of 2 days were equilibrated by washing 4 times with HEPES (10 mM, pH 7.4)-buffered Ca^2+, Mg^2+-free HBSS (H-HBSS). The solution in each well was removed from the individual well. Medium containing the test compound plus capsaicin (final concentration 0.5 μM) and ^45Ca (final concentration 10 μCi/ml) in H-HBSS was added to each well and incubated at room temperature for 10 mins. Terasaki plates were washed five times with H-HBSS and dried at room temperature. To each well, 0.3% SDS (10 μl) was added to elute ^45Ca. After the addition of scintillation cocktail of into each well, the amount of ^45Ca influx into neuron was measured by counting radioactivity.

SMILES | pIC50
CC(C)(C)c1ccc(/C=C/C(=O)NCc2cc(F)c(NS(C)(=O)=O)c(F)c2)cn1 [Example 39, 3-(6-tert-Butyl-pyridin-3-yl)-N-(3,5-difluoro-4-methanesulfonylamino-benzyl)-acrylamide] | 5.80
C#Cc1cc(CNC(=O)/C=C/c2ccc(C(F)(F)F)nc2Cl)cc(F)c1NS(C)(=O)=O [Example 40, 3-(2-Chloro-6-trifluoromethyl-pyridin-3-yl)-N-(3-ethynyl-5-fluoro-4-methanesulfonylamino-benzyl)-acrylamide] | 6.01
C#Cc1cc(CNC(=O)/C=C/c2cnc(OC)cc2C(F)(F)F)cc(F)c1NS(C)(=O)=O [Example 41, N-(3-Ethynyl-5-fluoro-4-methanesulfonylaminobenzyl)-3-(6-methoxy-4-trifluoromethylpyridin-3-yl)acrylamide] | 5.80
COc1cc(C(F)(F)F)c(/C=C/C(=O)NCc2ccc(NS(C)(=O)=O)c(F)c2)cn1 [Example 43, N-(3-Fluoro-4-methanesulfonylaminobenzyl)-3-(6-methoxy-4-trifluoromethylpyridin-3-yl)acrylamide] | 5.04
CS(=O)(=O)Nc1ccc(CNC(=O)/C=C/c2ccc(C(F)(F)F)nc2Cl)cc1F [Example 44, 3-(2-Chloro-6-trifluoromethyl-pyridin-3-yl)-N-(3-fluoro-4-methanesulfonylamino-benzyl)-acrylamide] | < 5.00
CCN(CC)c1nc(C(F)(F)F)ccc1/C=C/C(=O)NCc1ccc(NS(C)(=O)=O)c(F)c1 [Example 47, 3-(2-Diethylamino-6-trifluoromethyl-pyridin-3-yl)-N-(3-fluoro-4-methanesulfonylamino-benzyl)-acrylamide] | 6.02
C#Cc1cc(CNC(=O)/C=C/c2cccnc2N2CCOCC2)cc(F)c1NS(C)(=O)=O [Example 49, N-(3-Ethynyl-5-fluoro-4-methanesulfonylamino-benzyl)-3-(2-morpholin-4-yl-pyridin-3-yl)-acrylamide] | 5.27
CS(=O)(=O)Nc1ccc(CNC(=O)/C=C/c2cccnc2N2CCOCC2)cc1F [Example 50, N-(5-fluoro-4-methanesulfonylamino-benzyl)-3-(2-morpholin-4-yl-pyridin-3-yl)-acrylamide] | < 5.00
C#Cc1cc(CNC(=O)/C=C/c2ccc(C(C)(C)C)nc2Cl)cc(F)c1NS(C)(=O)=O [Example 51, 3-(6-tert-Butyl-2-chloro-pyridin-3-yl)-N-(3-ethynyl-5-fluoro-4-methanesulfonylamino-benzyl)-acrylamide] | 6.85
CS(=O)(=O)Nc1ccc(CNC(=O)/C=C/c2cnc(Cl)cc2C(F)(F)F)cc1F [Example 53, 3-(6-Chloro-4-trifluoromethyl-pyridin-3-yl)-N-(3-fluoro-4-methanesulfonylamino-benzyl)-acrylamide] | < 5.00
CS(=O)(=O)Nc1ccc(CNC(=O)/C=C/c2ccc(C(F)(F)F)nc2N2CCCC2)cc1F [Example 55, N-(3-Fluoro-4-methanesulfonylamino-benzyl)-3-(2-pyrrolidin-1-yl-6-trifluoromethyl-pyridin-3-yl)-acrylamide] | 5.85
CS(=O)(=O)Nc1ccc(CNC(=O)/C=C/c2ccc(C(F)(F)F)nc2N2CCC(O)C2)cc1F (centres unmarked) [Example 56, N-(3-Fluoro-4-methanesulfonylamino-benzyl)-3-[2-(3-hydroxy-pyrrolidin-1-yl)-6-trifluoromethyl-pyridin-3-yl]-acrylamide] | < 5.00
CS(=O)(=O)Nc1ccc(CNC(=O)/C=C/c2ccc(C(F)(F)F)nc2)cc1F [Example 58, N-(3-Fluoro-4-methanesulfonylamino-benzyl)-3-(6-trifluoromethyl-pyridin-3-yl)-acrylamide] | < 5.00
C#Cc1cc(CNC(=O)/C=C/c2ccc(C(C)(C)C)nc2N2CCOCC2)cc(F)c1NS(C)(=O)=O [Example 59, 3-(6-tert-Butyl-2-morpholin-4-yl-pyridin-3-yl)-N-(3-ethynyl-5-fluoro-4-methanesulfonylamino-benzyl)-acrylamide] | 6.68
COc1nc(C(F)(F)F)ccc1/C=C/C(=O)NCc1ccc(NS(C)(=O)=O)c(F)c1 [Example 60, N-(3-Fluoro-4-methanesulfonylamino-benzyl)-3-(2-methoxy-6-trifluoromethyl-pyridin-3-yl)-acrylamide] | 5.68
CS(=O)(=O)Nc1ccc(CNC(=O)/C=C/c2ccc(C(F)(F)F)nc2NCCO)cc1F [Example 61, N-(3-Fluoro-4-methanesulfonylamino-benzyl)-3-[2-(2-hydroxy-ethylamino)-6-trifluoromethyl-pyridin-3-yl]-acrylamide] | 5.31
C#Cc1cc(CNC(=O)/C=C/c2ccc(C(F)(F)F)nc2N2CCCC2)cc(F)c1NS(C)(=O)=O [Example 62, N-(3-Ethynyl-5-fluoro-4-methanesulfonylamino-benzyl)-3-(2-pyrrolidin-1-yl-6-trifluoromethyl-pyridin-3-yl)-acrylamide] | 6.59
CCCCOc1nc(C(F)(F)F)ccc1/C=C/C(=O)NCc1ccc(NS(C)(=O)=O)c(F)c1 [Example 63, 3-(2-Butoxy-6-trifluoromethyl-pyridin-3-yl)-N-(3-fluoro-4-methanesulfonylamino-benzyl)-acrylamide] | 6.25
C#Cc1cc(CNC(=O)/C=C/c2ccc(C(F)(F)F)nc2N2CCN(C)CC2)cc(F)c1NS(C)(=O)=O [Example 64, N-(3-Ethynyl-5-fluoro-4-methanesulfonylamino-benzyl)-3-[2-(4-methyl-piperazin-1-yl)-6-trifluoromethyl-pyridin-3-yl]-acrylamide] | 5.19
C#Cc1cc(CNC(=O)/C=C/c2ccc(C(F)(F)F)nc2OCCCC)cc(F)c1NS(C)(=O)=O [Example 66, 3-(2-Butoxy-6-trifluoromethyl-pyridin-3-yl)-N-(3-ethynyl-5-fluoro-4-methanesulfonylamino-benzyl)-acrylamide] | 6.60
C#Cc1cc(CNC(=O)/C=C/c2ccc(C(F)(F)F)nc2C)cc(F)c1NS(C)(=O)=O [Example 68, N-(3-Ethynyl-5-fluoro-4-methanesulfonylaminobenzyl)-3-(2-methyl-6-trifluoromethylpyridin-3-yl)acrylamide] | 5.89
Cc1nc(C(F)(F)F)ccc1/C=C/C(=O)NCc1ccc(NS(C)(=O)=O)c(F)c1 [Example 69, N-(3-Fluoro-4-methanesulfonylaminobenzyl)-3-(2-methyl-6-trifluoromethylpyridin-3-yl)acrylamide] | 5.49
C#Cc1cc(CNC(=O)/C=C/c2ccc(C(F)(F)F)nc2OC(C)C)cc(F)c1NS(C)(=O)=O [Example 70, 3-(2-Isopropoxy-6-trifluoromethyl-pyridin-3-yl)-N-(3-ethynyl-5-fluoro-4-methanesulfonylamino-benzyl)-acrylamide] | 6.89
C#Cc1cc(CNC(=O)/C=C/c2ccc(C(F)(F)F)nc2N2CCC[C@H]2C(=O)OCc2ccccc2)cc(F)c1NS(C)(=O)=O [Example 71, N-(3-Ethynyl-5-fluoro-4-methanesulfonylamino-benzyl)-3-[2-(2-benzyloxycarbonyl-pyrrolidin-1-yl)-6-trifluoromethyl-pyridin-3-yl]-acrylamide] | < 5.00
C#Cc1cc(CNC(=O)/C=C/c2ccc(C(F)(F)F)nc2NCCCC)cc(F)c1NS(C)(=O)=O [Example 72, 3-(2-Butylamino-6-trifluoromethyl-pyridin-3-yl)-N-(3-ethynyl-5-fluoro-4-methanesulfonylamino-benzyl)-acrylamide] | 6.80
C#Cc1cc(CNC(=O)/C=C/c2ccc(C(F)(F)F)nc2NC2CCCC2)cc(F)c1NS(C)(=O)=O [Example 73, 3-(2-Cyclopentylamino-6-trifluoromethyl-pyridin-3-yl)-N-(3-ethynyl-5-fluoro-4-methanesulfonylamino-benzyl)-acrylamide] | 6.82
C#Cc1cc(CNC(=O)/C=C/c2ccc(C(F)(F)F)nc2OCC(C)C)cc(F)c1NS(C)(=O)=O [Example 74, N-(3-Ethynyl-5-fluoro-4-methanesulfonylamino-benzyl)-3-(2-isobutoxy-6-trifluoromethyl-pyridin-3-yl)-acrylamide] | 6.29
C#Cc1cc(CNC(=O)/C=C/c2cc(Cl)c(C(F)(F)F)nc2CCCC)cc(F)c1NS(C)(=O)=O [Example 76, 3-(2-Butyl-5-chloro-6-trifluoromethyl-pyridin-3-yl)-N-(3-ethynyl-5-fluoro-4-methanesulfonylamino-benzyl)-acrylamide] | 6.70
C#Cc1cc(CNC(=O)/C=C/c2ccc(C(F)(F)F)nc2OC(C)CC)cc(F)c1NS(C)(=O)=O (centres unmarked) [Example 77, 3-(2-sec-Butoxy-6-trifluoromethyl-pyridin-3-yl)-N-(3-ethynyl-5-fluoro-4-methanesulfonylamino-benzyl)-acrylamide] | 6.47
